# Molecular target: alpha-glucosidase (Saccharomyces cerevisiae)
# Experiment: Inhibition of Saccharomyces cerevisiae alpha-glucosidase activity using pNPG as substrate
compound,measurement,value
O=C(CO)CCC(=O)c1nc(C(=O)O)cc2c1[nH]c1ccccc12,IC50,63 nM
